Data from patent US10189854B2, “Substituted pyrimidine compounds” (Grünenthal GmbH, priority 2014, dated 2019).

Target: human PDE4B1 (Homo sapiens (Human), UniProt Q07343)
Assay: cAMP HTRF assay to determine the activity of hPDE4B1
Assay type: biochemical
Settings: IC50 inhibition of PDE4B; human recombinant PDE4B1, cAMP HTRF assay
Method in brief: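 Recombinant human PDE4B1 expressed in Sf9 cells (4.8 U) was incubated with 40 nM cAMP for 30 min at room temperature in Tris buffer, pH 7.8, with MgCl2, DTT and Tween 20. HTRF detection of remaining cAMP followed, with 1 mM IBMX stop, read 60 min later as the 665/620 nm ratio. Results are % inhibition versus control.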

Sequence of human PDE4B1 (Q07343 whole entry): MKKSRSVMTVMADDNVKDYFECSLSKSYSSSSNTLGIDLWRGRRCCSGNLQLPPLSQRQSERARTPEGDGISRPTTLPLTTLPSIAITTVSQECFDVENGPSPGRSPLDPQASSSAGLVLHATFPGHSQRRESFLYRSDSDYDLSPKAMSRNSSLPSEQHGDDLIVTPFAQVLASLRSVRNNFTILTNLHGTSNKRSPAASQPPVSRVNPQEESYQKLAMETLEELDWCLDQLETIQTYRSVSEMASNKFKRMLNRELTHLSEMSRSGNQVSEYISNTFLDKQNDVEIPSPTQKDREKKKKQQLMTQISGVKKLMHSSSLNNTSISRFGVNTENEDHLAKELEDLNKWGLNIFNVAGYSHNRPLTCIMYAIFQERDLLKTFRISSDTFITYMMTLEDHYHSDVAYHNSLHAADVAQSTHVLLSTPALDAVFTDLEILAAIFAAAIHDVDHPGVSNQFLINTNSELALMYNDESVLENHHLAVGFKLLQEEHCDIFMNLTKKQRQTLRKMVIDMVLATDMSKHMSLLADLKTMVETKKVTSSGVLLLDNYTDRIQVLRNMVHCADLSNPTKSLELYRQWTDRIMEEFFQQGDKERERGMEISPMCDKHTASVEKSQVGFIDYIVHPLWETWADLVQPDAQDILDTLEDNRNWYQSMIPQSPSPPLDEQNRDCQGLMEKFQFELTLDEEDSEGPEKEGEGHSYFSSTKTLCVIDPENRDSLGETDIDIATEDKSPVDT

Row | Molecule | IC50
1 | COC[C@@H]1CCCN1C(=O)c1ccc2c(c1)N(c1ncc(-c3ccccc3F)cn1)CC21CC1 [Compound 92, [1-[5-(2-Fluorophenyl)-pyrimidin-2-yl]-spiro[1,2-dihydro-indole-3,1′-cyclopropane]-6-yl]-[(2S)-2-(methoxymethyl)-pyrrolidin-1-yl]-methanone] | 0.1 to 1 µM
2 | N#Cc1ccc(F)c(-c2cnc(N3CC4(CC4)c4ccc(C(=O)N5CCOCC5)cc43)nc2)c1 [Compound 22, 4-Fluoro-3-[2-[6-(morpholine-4-carbonyl)-spiro[1,2-dihydro-indole-3,1′-cyclopropane]-1-yl]-pyrimidin-5-yl]-benzonitrile] | < 0.1 µM
3 | CN(C(=O)c1ccc2c(c1)N(c1ncc(-c3ccccc3F)cn1)CC21CC1)c1ccncc1 [Compound 88, 1-[5-(2-Fluorophenyl)-pyrimidin-2-yl]-N-methyl-N-pyridin-4-yl-spiro[1,2-dihydro-indole-3,1′-cyclopropane]-6-carboxylic acid amide] | 0.1 to 1 µM
4 | O=C(c1ccc2c(c1)N(c1ncc(-c3cncnc3)cn1)CC21CC1)N1CCOCC1 [Compound 162, Morpholin-4-yl-[1-(5-pyrimidin-5-yl-pyrimidin-2-yl)-spiro[1,2-dihydro-indole-3,1′-cyclopropane]-6-yl]-methanone] | < 0.1 µM
5 | O=C(c1ccc2c(c1)N(c1ncc(-c3ccccc3)cn1)CC21CC1)N1CCCC1 [Compound 59, [1-(5-Phenyl-pyrimidin-2-yl)-spiro[1,2-dihydro-indole-3,1′-cyclopropane]-6-yl]-pyrrolidin-1-yl-methanone] | < 0.1 µM
6 | CN(CC1OCCO1)C(=O)c1ccc2c(c1)N(c1ncc(-c3ccccc3F)cn1)CC21CC1 [Compound 87, N-([1,3]Dioxolan-2-yl-methyl)-1-[5-(2-fluorophenyl)-pyrimidin-2-yl]-N-methyl-spiro[1,2-dihydro-indole-3,1′-cyclopropane]-6-carboxylic acid amide] | 0.1 to 1 µM
7 | O=C(c1ccc2c(c1)N(c1ncc(-c3ccnc(F)c3)cn1)CC21CC1)N1CCOCC1 [Compound 160, [1-[5-(2-Fluoro-pyridin-4-yl)-pyrimidin-2-yl]-spiro[1,2-dihydro-indole-3,1′-cyclopropane]-6-yl]-morpholin-4-yl-methanone] | < 0.1 µM
8 | O=C(c1ccc2c(c1)N(c1ncc(-c3ccc(F)s3)cn1)CC21CC1)N1CCOCC1 [Compound 148, [1-[5-(5-Fluoro-thiophen-2-yl)-pyrimidin-2-yl]-spiro[1,2-dihydro-indole-3,1′-cyclopropane]-6-yl]-morpholin-4-yl-methanone] | < 0.1 µM
9 | O=C(c1ccc2c(c1)N(c1ncc(-c3ccccc3F)cn1)CC21CC1)N1CC[C@H](O)C1 [Compound 45, [1-[5-(2-Fluorophenyl)-pyrimidin-2-yl]-spiro[1,2-dihydro-indole-3,1′-cyclopropane]-6-yl]-[(3S)-3-hydroxy-pyrrolidin-1-yl]-methanone] | 0.1 to 1 µM
10 | N#Cc1cccc(-c2cnc(N3CC4(CC4)c4ccc(C(=O)N5CCOCC5)cc43)nc2)c1 [Compound 56, 3-[2-[6-(Morpholine-4-carbonyl)-spiro[1,2-dihydro-indole-3,1′-cyclopropane]-1-yl]-pyrimidin-5-yl]-benzonitrile] | < 0.1 µM
11 | COc1cccc(-c2cnc(N3CC4(CC4)c4ccc(C(=O)N5CC6CC5CN6)cc43)nc2)c1 (stereo not shown) [Compound 212, (2,5-Diazabicyclo[2.2.1]heptan-2-yl)-[1-[5-(3-methoxyphenyl)-pyrimidin-2-yl]-spiro[1,2-dihydro-indole-3,1′-cyclopropane]-6-yl]-methanone; 2,2,2-trifluoro-acetic acid] | < 0.1 µM
12 | [1-[5-(4-Fluoro-pyridin-2-yl)-pyrimidin-2-yl]-spiro[1,2-dihydro-indole-3,1′-cyclopropane]-6-yl]-morpholin-4-yl-methanone [Compound 187] | < 0.1 µM
13 | 1-[5-(3-Carbamoyl-phenyl)-pyrimidin-2-yl]-N-(2-hydroxy-ethyl)-N-methyl-spiro[1,2-dihydro-indole-3,1′-cyclopropane]-6-carboxylic acid amide [Compound 198] | < 0.1 µM
14 | O=C(c1ccc2c(c1)N(c1ncc(-c3cc(Cl)ccc3F)cn1)CC21CC1)N1CCOCC1 [Compound 58, [1-[5-(5-Chloro-2-fluoro-phenyl)-pyrimidin-2-yl]-spiro[1,2-dihydro-indole-3,1′-cyclopropane]-6-yl]-morpholin-4-yl-methanone] | < 0.1 µM
15 | O=C(c1ccc2c(c1)N(c1ncc(-c3ccc(CO)o3)cn1)CC21CC1)N1CCOCC1 [Compound 142, [1-[5-[5-(Hydroxymethyl)-furan-2-yl]-pyrimidin-2-yl]-spiro[1,2-di-hydro-indole-3,1′-cyclopropane]-6-yl]-morpholin-4-yl-methanone] | < 0.1 µM
16 | O=C(c1cnc2c(c1)N(c1ncc(-c3ccccc3F)cn1)CC21CC1)N1CCOCC1 [Compound 169, [1-[5-(2-Fluorophenyl)-pyrimidin-2-yl]-spiro[1,2-dihydro-pyrrolo[3,2-b]pyridine-3,1′-cyclopropane]-6-yl]-morpholin-4-yl-methanone] | 0.1 to 1 µM
17 | Cc1noc(C)c1-c1cnc(N2CC3(CC3)c3ccc(C(=O)N4CCOCC4)cc32)nc1 [Compound 135, [1-[5-(3,5-Dimethyl-isoxazol-4-yl)-pyrimidin-2-yl]-spiro[1,2-di-hydro-indole-3,1′-cyclopropane]-6-yl]-morpholin-4-yl-methanone] | 0.1 to 1 µM
18 | CC1(C)CN(C(=O)c2ccc3c(c2)N(c2ncc(-c4ccccc4F)cn2)CC32CC2)CCO1 [Compound 105, (2,2-Dimethyl-morpholin-4-yl)-[1-[5-(2-fluorophenyl)-pyrimidin-2-yl]-spiro[1,2-dihydro-indole-3,1′-cyclopropane]-6-yl] methanone] | 0.1 to 1 µM
19 | COc1ccc(-c2cnc(N3CC4(CC4)c4ccc(C(=O)N5CCOCC5)cc43)nc2)c(F)c1 [Compound 17, [1-[5-(2-Fluoro-4-methoxy-phenyl)-pyrimidin-2-yl]-spiro[1,2-dihydro-indole-3,1′-cyclopropane]-6-yl]-morpholin-4-yl-methanone] | < 0.1 µM
20 | COCCCNC(=O)c1ccc2c(c1)N(c1ncc(-c3ccccc3F)cn1)CC21CC1 [Compound 75, 1-[5-(2-Fluorophenyl)-pyrimidin-2-yl]-N-(3-methoxy-propyl)-spiro[1,2-dihydro-indole-3,1′-cyclopropane]-6-carboxylic acid amide] | 0.1 to 1 µM

Further lines, results first:

Row | IC50 | Molecule
21 | < 0.1 µM | O=C(c1ccc2c(c1)N(c1ncc(-c3cc(OC(F)(F)F)ccc3F)cn1)CC21CC1)N1CCNCC1 [Compound 72, [1-[5-[2-Fluoro-5-(trifluoromethyloxy)-phenyl]-pyrimidin-2-yl]-spiro[1,2-dihydro-indole-3,1′-cyclopropane]-6-yl]-piperazin-1-yl-methanone]
22 | < 0.1 µM | N[C@H]1CCN(C(=O)c2ccc3c(c2)N(c2ncc(-c4ccccc4F)cn2)CC32CC2)C1 [Compound 115, [(3S)-3-Amino-pyrrolidin-1-yl]-[1-[5-(2-fluorophenyl)-pyrimidin-2-yl]-spiro[1,2-dihydro-indole-3,1′-cyclopropane]-6-yl]-methanone]
23 | 1 to 10 µM | COCC1CCN(C(=O)c2ccc3c(c2)N(c2ncc(-c4ccccc4F)cn2)CC32CC2)CC1 [Compound 217, [1-[5-(2-Fluorophenyl)-pyrimidin-2-yl]-spiro[1,2-dihydro-indole-3,1′-cyclopropane]-6-yl]-[4-(methoxymethyl)-piperidin-1-yl]-methanone]
24 | 0.1 to 1 µM | N#Cc1ccc(-c2cnc(N3CC4(CC4)c4ccc(C(=O)N5CCOCC5)cc43)nc2)c(F)c1 [Compound 30, 3-Fluoro-4-[2-[6-(morpholine-4-carbonyl)-spiro[1,2-dihydro-indole-3,1′-cyclopropane]-1-yl]-pyrimidin-5-yl]-benzonitrile]
25 | < 0.1 µM | [1-[5-(6-Fluoro-pyrimidin-4-yl)-pyrimidin-2-yl]-spiro[1,2-dihydro-indole-3,1′-cyclopropane]-6-yl]-morpholin-4-yl-methanone [Compound 205]
26 | < 0.1 µM | COc1cccc(-c2cnc(N3CC4(CC4)c4ccc(C(=O)N(C)CCO)cc43)nc2)n1 [Compound 211, N-(2-Hydroxy-ethyl)-1-[5-(6-methoxy-pyridin-2-yl)-pyrimidin-2-yl]-N-methyl-spiro[1,2-dihydro-indole-3,1′-cyclopropane]-6-carboxylic acid amide]
27 | 1 to 10 µM | O=C(c1ccc2c(c1)N(c1ncc(-c3ccccc3F)cn1)CC21CC1)N1CCC2(CNC2)C1 [Compound 74, (2,6-Diazaspiro[3.4]octan-6-yl)-[1-[5-(2-fluorophenyl)-pyrimidin-2-yl]-spiro[1,2-dihydro-indole-3,1′-cyclopropane]-6-yl]-methanone]
28 | < 0.1 µM | O=C(c1ccc2c(c1)N(c1ncc(-c3ccccn3)cn1)CC21CC1)N1CCCC1 [Compound 175, [1-(5-Pyridin-2-yl-pyrimidin-2-yl)-spiro[1,2-dihydro-indole-3,1′-cyclopropane]-6-yl]-pyrrolidin-1-yl-methanone]
29 | < 0.1 µM | O=C1CN(C(=O)c2ccc3c(c2)N(c2ncc(-c4cccnc4F)cn2)CC32CC2)CCN1 [Compound 176, 4-[1-[5-(2-Fluoro-pyridin-3-yl)-pyrimidin-2-yl]-spiro[1,2-dihydro-indole-3,1′-cyclopropane]-6-carbonyl]-piperazin-2-one]
30 | < 0.1 µM | N#Cc1ccsc1-c1cnc(N2CC3(CC3)c3ccc(C(=O)N4CCOCC4)cc32)nc1 [Compound 153, 2-[2-[6-(Morpholine-4-carbonyl)-spiro[1,2-dihydro-indole-3,1′-cyclopropane]-1-yl]-pyrimidin-5-yl]-thiophene-3-carbonitrile]
31 | < 0.1 µM | O=C(c1ccc2c(c1)N(c1ncc(-c3c(F)cccc3F)cn1)CC21CC1)N1CCOCC1 [Compound 27, [1-[5-(2,6-Difluoro-phenyl)-pyrimidin-2-yl]-spiro[1,2-dihydro-indole-3,1′-cyclopropane]-6-yl]-morpholin-4-yl-methanone]
